This is an account of results in the NIST ThermoML archive (doi:10.1021/je034208m).

Each structure is given as a SMILES string. Where “and” joins values, the source holds several entries; their conditions need not be identical. Equal values may be shown once. Numbers after ± are expanded uncertainties.

Assay in one series: not given
Conditions: 293.15 K; 101.33 kPa; Liquid.
With `CCCC(C)O` (stereo not drawn) [pentan-2-ol], the mass density (usually the mass of a sample divided by its volume) worked out at 809.04 ± 0.99 kg/m3 and the viscosity (in general, the resistance of a fluid to flow) is reported as 4.001 ± 0.075 mPa·s.
`CCCCCCCC` [octane]: the mass density is recorded as 702.57 ± 0.78 kg/m3 and the viscosity was 0.538 ± 0.01 mPa·s.
The matching figures for `CCCCCCCCCCCC` [dodecane]: 748.54 ± 0.77 kg/m3 and 1.454 ± 0.024 mPa·s.
Taken in the same sequence, the figures for `CCCCCCCCCC` [decane] were 729.89 ± 0.8 kg/m3 and 0.911 ± 0.016 mPa·s.

Staying with this series, now noted: 293.15 K; 101.33 kPa; Liquid; Sing-around technique in a fixed-path interferometer.
`CCCC(C)O` (stereo not drawn) [pentan-2-ol]: the speed of sound – broadly, how fast a sound wave travels through the sample – is 1250 ± 2 m/s.
The same measure, in the same setting: the result for `CCCCCCCC` [octane] reads 1193 ± 1 m/s.
In the case of `CCCCCCCCCCCC` [dodecane], the speed of sound stood at 1297 ± 1 m/s.
Still for that read-out and setting: the result for `CCCCCCCCCC` [decane] reads 1254 ± 1 m/s.

The same series, now with this note: 298.15 K; 101.33 kPa; Liquid.
Take `CCCC(C)O` (stereo not drawn) [pentan-2-ol]: the mass density was 805.01 ± 0.99 kg/m3 and 805 ± 0.99 kg/m3; the viscosity was 3.273 ± 0.063 mPa·s.
`CCCCCCCC` [octane]: the mass density is 698.54 ± 0.79 kg/m3 and the viscosity came out at 0.506 ± 0.009 mPa·s.
Taken in the same sequence, the figures for `CCCCCCCCCCCC` [dodecane] were 744.9 ± 0.77 kg/m3 and 1.327 ± 0.022 mPa·s.
Take `CCCCCCCCCC` [decane]: the mass density came out at 726.12 ± 0.8 kg/m3 and the viscosity is given as 0.845 ± 0.015 mPa·s.

Staying with this series, now noted: 298.15 K; 101.33 kPa; Liquid; Sing-around technique in a fixed-path interferometer.
On to `CCCC(C)O` (stereo not drawn) [pentan-2-ol], for which the speed of sound was 1232 ± 2 m/s.
For the compound `CCCCCCCC` [octane], the speed of sound is on record as 1173 ± 1 m/s.
Regarding `CCCCCCCCCCCC` [dodecane], the speed of sound came out at 1278 ± 1 m/s.
On the same count and under the same terms, the result for `CCCCCCCCCC` [decane] reads 1235 ± 1 m/s.

The same series, now with this note: 303.15 K; 101.33 kPa; Liquid.
For the compound `CCCC(C)O` (stereo not drawn) [pentan-2-ol], the mass density turned out to be 800.9 ± 0.99 kg/m3 and the viscosity is on record as 2.708 ± 0.053 mPa·s.
As for `CCCCCCCC` [octane], the mass density came out at 694.49 ± 0.8 kg/m3 and the viscosity amounted to 0.478 ± 0.009 mPa·s.
Taken in the same sequence, the figures for `CCCCCCCCCCCC` [dodecane] were 741.27 ± 0.78 kg/m3 and 1.219 ± 0.02 mPa·s.
The matching figures for `CCCCCCCCCC` [decane]: 722.33 ± 0.81 kg/m3 and 0.787 ± 0.014 mPa·s.

Still in this series, the particulars now being: 303.15 K; 101.33 kPa; Liquid; Sing-around technique in a fixed-path interferometer.
Regarding `CCCC(C)O` (stereo not drawn) [pentan-2-ol], the speed of sound is given as 1214 ± 2 m/s.
The same measure, in the same setting: for `CCCCCCCC` [octane] the value was 1152 ± 1 m/s; for `CCCCCCCCCCCC` [dodecane], 1259 ± 1 m/s.
Same read-out and setting: for `CCCCCCCCCC` [decane] the value was 1215 ± 1 m/s.

A further series in a line: xn = mol fraction of the nth substance listed. Conditions: 293.15 K; 101.33 kPa; Liquid; Sing-around technique in a fixed-path interferometer; x2 = 0.
With `CCCCCCCCCCCC` [dodecane] + CCCC(C)O, the speed of sound is given as 1297 ± 1 m/s.
`CCCCCCCC` [octane] + CCCC(C)O: the speed of sound came to 1193 ± 1 m/s.
Consider `CCCCCCCCCC` [decane] + CCCC(C)O, for which the speed of sound is given as 1254 ± 1 m/s.

Staying with this series, now noted: 293.15 K; 101.33 kPa; Liquid; x2 = 0.
On to `CCCCCCCCCCCC` [dodecane] + CCCC(C)O, for which the mass density amounted to 748.54 ± 0.77 kg/m3 and the viscosity is recorded as 1.454 ± 0.024 mPa·s.
The matching figures for `CCCCCCCC` [octane] + CCCC(C)O: 702.57 ± 0.78 kg/m3 and 0.538 ± 0.01 mPa·s.
The matching figures for `CCCCCCCCCC` [decane] + CCCC(C)O: 729.89 ± 0.8 kg/m3 and 0.911 ± 0.016 mPa·s.

Staying with this series, now noted: 298.15 K; 101.33 kPa; Liquid; Sing-around technique in a fixed-path interferometer; x2 = 0.
For `CCCCCCCCCCCC` [dodecane] + CCCC(C)O, the speed of sound was 1278 ± 1 m/s.
In the case of `CCCCCCCC` [octane] + CCCC(C)O, the speed of sound came to 1173 ± 1 m/s.
Regarding `CCCCCCCCCC` [decane] + CCCC(C)O, the speed of sound is on record as 1235 ± 1 m/s.

The series is the same for the next values; noted with them: 298.15 K; 101.33 kPa; Liquid; x2 = 0.
Consider `CCCCCCCCCCCC` [dodecane] + CCCC(C)O, for which the mass density is listed as 744.9 ± 0.77 kg/m3 and the viscosity came out at 1.327 ± 0.022 mPa·s.
Taken in the same sequence, the figures for `CCCCCCCC` [octane] + CCCC(C)O were 698.54 ± 0.79 kg/m3 and 0.506 ± 0.009 mPa·s.
Turning to `CCCCCCCCCC` [decane] + CCCC(C)O, the mass density is 726.12 ± 0.8 kg/m3 and the viscosity was determined as 0.845 ± 0.015 mPa·s.

Staying with this series, now noted: 303.15 K; 101.33 kPa; Liquid; Sing-around technique in a fixed-path interferometer; x2 = 0.
Turning to `CCCCCCCCCCCC` [dodecane] + CCCC(C)O, the speed of sound came to 1259 ± 1 m/s.
On the same count and under the same terms, the result for `CCCCCCCC` [octane] + CCCC(C)O reads 1152 ± 1 m/s.
As to `CCCCCCCCCC` [decane] + CCCC(C)O, the speed of sound is on record as 1215 ± 1 m/s.

Still in this series, the particulars now being: 303.15 K; 101.33 kPa; Liquid; x2 = 0.
`CCCCCCCCCCCC` [dodecane] + CCCC(C)O: the mass density is reported as 741.27 ± 0.78 kg/m3 and the viscosity was 1.219 ± 0.02 mPa·s.
Regarding `CCCCCCCC` [octane] + CCCC(C)O, the mass density was 694.49 ± 0.8 kg/m3 and the viscosity is listed as 0.478 ± 0.009 mPa·s.
The matching figures for `CCCCCCCCCC` [decane] + CCCC(C)O: 722.33 ± 0.81 kg/m3 and 0.787 ± 0.014 mPa·s.
